Measurements reported in patent EP1216701A1, “Process to increase the concentration of meiosis-activating sterols (MAS) in the cholesterol synthesis and the use of potent inhibitors in the process” (Schering Aktiengesellschaft, priority 2000, dated 2002).

How the values were obtained:
HepG2 cells [1] = assay: Accumulation of cholesterol precursors / C29-sterols (MAS) in HepG2 cells, GC/MS (SIM); type: cell-based, Human; settings: HepG2 cells; for Increases in FF-MAS / Increases in T-MAS: 1 µM, refers to Table 1; for Dienol (m/z 486) / Enol T-MAS (m/z 484) / Trienol FF-MAS (m/z 482): ± SD; for suppression of the Δ24 reduction step (accumulation of desmosterol): absence of miconazole, 10 µM potent inhibitors or 1 µM tamoxifen for 12 h
Method: (§1) Human hepatoma HepG2 cells were cultured to confluency in 60-mm dishes in phenol-red-free Dulbecco's modified Eagle's medium (DMEM) containing Pen-Strep (100 µg/ml), glucose (10 mM), sodium bicarbonate (45 mM) and glutamine (4 mM) supplemented with 10% fetal calf serum as described previously (24). At the beginning of the experiment the medium was changed to serum-free DMEM supplemented with 10% lipid-free "controlled process serum replacement" (CPSR-1). Compounds were added from ethanolic stock solutions to produce final ethanol concentrations of 0.1-0.3% v/v. Controls received the same amount of ethanol. Aminotriazole was added in an aqueous solution. Slices of rat testis (25 µm; 25-50 mg wet weight) were incubated under the same conditions in a shaking water bath (37°C). For isotopomer spectral analysis (ISA) of lathosterol, 1-^13C-acetate was added in an aqueous solution to a final concentration of 1 mM.
(§2) Cells were washed three times with ice cold PBS (pH 7.4) (once with 2 mg/ml BSA and twice with PBS alone). Epicoprostanol (1 µg in 50 µl of hexane) was added as internal standard to each sample. Sterols were extracted in hexane/isopropanol (3:2 v/v; two times with 4 ml). After drying under nitrogen and alkaline hydrolysis (1 N NaOH in 80% ethanol, 1.5 h at 70°C), the sterols were extracted with cyclohexane (two times with 3 ml). After drying under nitrogen, sterols were converted to their trimethylsilyl (TMS) derivatives by adding 100 µl bis(trimethylsilyl)trifluoracetamide (Pierce)/n-decane (1:1; v/v) and heating for 1 h at 70°C in a conical glass tube. This solution (1-2 µl) was used for gas-chromatography/mass-spectrometry (GC/MS). Rat testes (0.05-0.15 g) were homogenized manually, and lipids were extracted in hexane/isopropanol (3:2 v/v; two times with 4 ml). The extracts were deproteinized with acetone (3 ml) and processed as described above. The observed sterol levels in testis were normalized to correspond to 0.1 g of tissue (wet weight).
Gas-chromatography was done in the splitless mode with temperature programming as follows: 150°C for 1 min, followed by 20°C/min up to 260°C and 10°C/min up to 280°C (hold for 15 min). Mass spectral data were collected either in the full-scan mode (m/z 50-550) or by selective ion monitoring (SIM). For SIM analyses the electron multiplier voltage was raised by 300 V after the elution of lathosterol to increase the sensitivity of detection for lanosterol, dihydrolanosterol, methylsterols, dimethylsterols and plant sterols. The internal standard epicoprostanol was monitored at m/z 370. […] Peak integration was performed manually, and sterols were quantified from SIM analyses against the internal standard. Unless stated otherwise, MAS amounts are given as a percentage of the control.

rat testis = assay: Levels of C29-sterols in rat testis slices, GC/MS (SIM); type: cell-based, Sprague-Dawley rats; settings: 9 h, n=3, ± SD
Method: Unless specified otherwise, potent inhibitors, drugs, chemicals, and cell culture supplies were purchased from Sigma. T-MAS and FF-MAS were synthesized as reported recently (5) and used as reference compounds. 1-^13C-acetate was obtained from Cambridge Isotope Laboratories. Rat testes were obtained from Sprague-Dawley rats (weight <50g).
as §1, §2
(§3) Analyses were performed on a Hewlett-Packard GC/MS system (5890 series II GC interfaced to a 5971 mass selective detector) equipped with a DB-XLB column (30 m x 0.25 mm i.d. x 0.25 µm film; J&W). Gas-chromatography was done in the splitless mode with temperature programming as follows: 150°C for 1 min, followed by 20°C/min up to 260°C and 10°C/min up to 280°C (hold for 15 min). Mass spectral data were collected either in the full-scan mode (m/z 50-550) or by selective ion monitoring (SIM). For SIM analyses the electron multiplier voltage was raised by 300 V after the elution of lathosterol to increase the sensitivity of detection for lanosterol, dihydrolanosterol, methylsterols, dimethylsterols and plant sterols. The internal standard epicoprostanol was monitored at m/z 370. In unlabeled experiments, cholesterol precursors and plant sterols were monitored by the following ions: desmosterol (m/z 456; 441 and 351); Δ8-cholestenol (m/z 458); lathosterol (m/z 458); monounsaturated methylsterols (m/z 472); diunsaturated methylsterols (m/z 470); monounsaturated dimethylsterols (m/z 486); diunsaturated dimethylsterols (m/z 484); triunsaturated dimethylsterols (m/z 482); lanosterol (m/z 498 and 393) and dihydrolanosterol (m/z 500 and 395). Peak integration was performed manually, and sterols were quantified from SIM analyses against the internal standard. Unless stated otherwise, MAS amounts are given as a percentage of the control. When 1-^13C-acetate was used in the culture medium for ISA, up to 10 ions (M+0- M+10) were monitored for the TMS derivatives of lathosterol (m/z 458-468), T-MAS (m/z 484-494) and FF-MAS (m/z 482-492).

Δ24-reductase = molecular target: T1, Δ24-reductase (Homo sapiens, UniProt Q15392); assay: Δ24-reductase assay (conversion of lanosterol to dihydrolanosterol in the presence of miconazole); type: cell-based; settings: HepG2 cells; conversion of lanosterol to dihydrolanosterol with added miconazole
T1 construct: endogenous in cells; host or cells: HepG2
T1 sequence (Q15392 23-516): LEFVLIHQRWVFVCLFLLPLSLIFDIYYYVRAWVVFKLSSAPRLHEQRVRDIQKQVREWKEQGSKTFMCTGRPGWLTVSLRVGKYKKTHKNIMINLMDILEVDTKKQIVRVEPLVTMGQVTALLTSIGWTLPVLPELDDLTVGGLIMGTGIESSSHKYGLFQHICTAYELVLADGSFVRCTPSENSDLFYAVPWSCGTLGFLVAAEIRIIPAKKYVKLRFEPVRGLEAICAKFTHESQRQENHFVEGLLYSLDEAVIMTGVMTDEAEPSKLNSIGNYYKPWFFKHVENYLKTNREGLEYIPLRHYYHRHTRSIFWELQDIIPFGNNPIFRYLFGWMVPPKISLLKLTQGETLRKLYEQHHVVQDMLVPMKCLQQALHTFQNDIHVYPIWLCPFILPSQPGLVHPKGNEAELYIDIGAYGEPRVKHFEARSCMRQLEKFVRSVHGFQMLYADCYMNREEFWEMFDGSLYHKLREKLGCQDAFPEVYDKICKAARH
Method: HepG2 cells were incubated for 12 h with 10 µM simvastatin (a kind gift from M. Stapff (MSD, Germany)) to deplete cholesterol precursors. Thereafter, the medium was changed to one containing 10 µM simvastatin, 10 µM miconazole (an inhibitor of 14α-demethylation) and 6 µg/dish lanosterol. After 12 h incubation, neutral sterols were extracted as described above, and the samples were monitored for lanosterol (m/z 498 (M^+) and m/z 393 (M-TMSOH-CH3)) and dihydrolanosterol (m/z 500 (M^+) and m/z 395 (M-TMSOH-CH3)) by GC/MS. Dihydrolanosterol was quantified by comparing the ratio of SIM abundances at m/z 395 and 370 (epicoprostanol) against a standard curve constructed from SIM results on mixtures of authentic dihydrolanosterol and epicoprostanol. Desmosterol was quantified analogously by SIM.

HepG2 cells [2] = assay: Isotopomer spectral analysis (ISA) of flux of 13C-acetate to lathosterol and cholesterol; type: cell-based, Human; settings: 10 µM, 12 h, 1 mM 1-13C-acetate
Method: as §1, §3
ISA was carried out as described previously (25) by incubating cells with 1-13C-acetate. The isotopomer distribution in sterols synthesized from 1-^13C-acetate provided the fractional synthesis rate g(t) of the product and the enrichment D of the labeled precursor pool. These parameters were calculated by nonlinear regression analysis as described previously (25,26). Because here we used the molecular ions containing the TMS group for the ISA calculations, the ISA program was modified to correct for the additional C, H and Si atoms from the derivatization reagent. Statistical differences were assessed by Student's t-test and considered significant for P<0.05.

[3] = Conc. 1 µM (combinations 1 + 1 µM), 24 h, n=3
[4] = Conc. 10 µM (combinations 10 + 10 µM), 12 h, n=2
[5] = Conc. 10 µM (combination 10 + 10 µM)
[6] = 12-h incubation with 10 µM, n=3 incubations

| Compound | Increases in FF-MAS (HepG2 cells [1]) [fold] | Increases in T-MAS (HepG2 cells [1]) [fold] | Dienol (m/z 486) (HepG2 cells [1]; [3]) | Enol T-MAS (m/z 484) (HepG2 cells [1]; [3]) | Trienol FF-MAS (m/z 482) (HepG2 cells [1]; [3]) | Dienol (m/z 486) (HepG2 cells [1]; [4]) | Enol T-MAS (m/z 484) (HepG2 cells [1]; [4]) | Trienol FF-MAS (m/z 482) (HepG2 cells [1]; [4]) | suppression of the Δ24 reduction step (accumulation of desmosterol) (HepG2 cells [1]) | Dienol (m/z 486) (rat testis; [5]) | Enol T-MAS (m/z 484) (rat testis; [5]) | Trienol FF-MAS (m/z 482) (rat testis; [5]) | Dienol (m/z 486) (rat testis; Conc. 20 µM) | Enol T-MAS (m/z 484) (rat testis; Conc. 20 µM) | Trienol FF-MAS (m/z 482) (rat testis; Conc. 20 µM) | order of suppression of Δ24 reduction (Δ24-reductase) | lowering of the total amount of lathosterol (HepG2 cells [2]) | reduction of de novo lathosterol synthesis (HepG2 cells [2]) | further results |
| --- | --- | --- | --- | --- | --- | --- | --- | --- | --- | --- | --- | --- | --- | --- | --- | --- | --- | --- | --- |
| CC(=O)[C@@]1(O)CC[C@H]2[C@@H]3CCC4=CC(=O)CC[C@]4(C)[C@H]3CC[C@@]21C [17α-OH-Progesterone, 17α-Hydroxy-progesterone] | 4 | 9 | 246 ± 26 % of control | 162 ± 15 % of control | 120 ± 14 % of control | 2384 ± 236 % of control | 2003 ± 201 % of control | 406 ± 52 % of control | not | 199 ± 19 % of control | 201 ± 26 % of control | 171 ± 8 % of control | 223 ± 25 % of control | 225 ± 22 % of control | 240 ± 40 % of control | pregnenolone > progesterone > 17α-OH-pregnenolone >> 17α-OH-progesterone | ca. 50% | more than 60% | – |
| CC(=O)[C@H]1CC[C@H]2[C@@H]3CC=C4C[C@@H](O)CC[C@]4(C)[C@H]3CC[C@]12C [Pregnenolone] | – | – | 110 ± 9 % of control | 223 ± 11 % of control | 166 ± 28 % of control | 4 ± 1 % of control | 308 ± 40 % of control | 213 ± 15 % of control | strongly suppressed | – | – | – | – | – | – | pregnenolone > progesterone > 17α-OH-pregnenolone >> 17α-OH-progesterone | ca. 50% | more than 60% | – |
| CC(=O)[C@H]1CC[C@H]2[C@@H]3CCC4=CC(=O)CC[C@]4(C)[C@H]3CC[C@]12C [Progesterone] | 4 | 9 | 77 ± 9 % of control | 192 ± 41 % of control | – | 26 ± 3 % of control | 1000 ± 106 % of control | 3335 ± 397 % of control | strongly suppressed | 109 ± 1 % of control | 107 ± 1 % of control | 336 ± 12 % of control | 103 ± 14 % of control | 129 ± 10 % of control | 487 ± 37 % of control | pregnenolone > progesterone > 17α-OH-pregnenolone >> 17α-OH-progesterone | ca. 50% | more than 60% | desmosterol as share of the cholesterol content of the cells (HepG2 cells [1]; 12-h incubation with 10 µM): 2.1%; cholesterol (HepG2 cells [1]; [6]): 269 ± 3 µg; desmosterol (HepG2 cells [1]; [6]): 5.7 ± 0.07 µg |
